Source: US8871767B2, “2-arylimidazo[1,2-B]pyridazine, 2-phenylimidazo[1,2-A]pyridine, and 2-phenylimidazo[1,2-A]pyrazine derivatives” (Hengrui (USA) Ltd., priority 2010, dated 2014)
pIC50: −log10 of the molar value. Like-named read-outs stand apart in the source and are kept apart here.

Legend:
[1] = test system: Hedgehog pathway activation on 10T1/2/Smo#3 cells (C3H10T1/2 cells transfected with human Smoothened receptor); assay: Hedgehog pathway activation on 10T1/2/Smo#3 cells measured by ALP activity; format: cell-based; details: Mus musculus, C3H 10T1/2, 10T1/2/Smo#3 cells
Summary of the method: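 Inhibition of alkaline phosphatase induction, read fluorometrically from 4-methylumbelliferyl phosphate conversion, gave IC50 values; CellTiter-Blue tracked viability in parallel. Cells were the human Smo-transfected 10T1/2/Smo#3 pool, stimulated by 10-20% hShh conditioned medium or the Smo agonist SAG (500 nM).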

[2] = test system: Hedgehog pathway activation (GLi-luciferase reporter) in Shh Light II reporter cells; assay: Hedgehog pathway activation on Shh Light II reporter cells measured by luciferase activity; format: cell-based
Summary of the method: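 Shh Light II reporter cells carrying a hedgehog-responsive GLi-luciferase reporter were stimulated either with 500 nM SAG, a direct Smoothened agonist, or with conditioned media containing human Sonic Hedgehog (hShh). Test compounds were evaluated for blocking this pathway activation, quantified by luciferase activity. Cell viability was monitored in parallel with the Celltiter-Blue® assay.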

[3] = measured by ALP activity, read-out: ALP (IC50, inhibition of Hedgehog pathway activation)
[4] = Mus musculus, Shh Light II, hShh activation, read-out: Shh (IC50, inhibition of Hedgehog pathway activation)
[5] = hShh activation, ALP activity, read-out: 10T1/2/Smo#3 ALP activity (hShh Activation)
[6] = Mus musculus, Shh Light II, SAG activation (500 nM SAG), read-out: Shh Light II luciferase activity (SAG activation)
[7] = Mus musculus, Shh Light II, hShh activation, read-out: Shh Light II luciferase activity (hShh activation)

Cc1ccc(-c2cn3nc(-c4cccnc4C(F)(F)F)ccc3n2)cc1NC(=O)C1CCCN1C (stereo not drawn) [Example 647, 1-methyl-N-(2-methyl-5-(6-(2-(trifluoromethyl)pyridin-3-yl)imidazo[1,2-b]pyridazin-2-yl)phenyl)pyrrolidine-2-carboxamide] was tested, and the pIC50 [1, 3] was 7.03 and the pIC50 [2, 4] was 6.73.

CC(C)(C)C(=O)Nc1cc(-c2cn3cc(-c4ccccc4F)ncc3n2)ccc1C(F)(F)F [Example 86, N-(5-(6-(2-fluorophenyl)imidazo[1,2-a]pyrazin-2-yl)-2-(trifluoromethyl)phenyl)pivalamide] showed a pIC50 [1, 5] of over 6.52, a pIC50 [1, 3] of 6.26 and a pIC50 [2, 6] of 5.52 to 6.52. The pIC50 [2, 4] was 6.28 and the pIC50 [2, 7] was over 6.52.

Work on CC(C)(C)C(=O)Nc1cc(-c2cn3nc(-c4ccccc4F)ccc3n2)ccc1C(F)(F)F [Example 171, N-(5-(6-(2-fluorophenyl)imidazo[1,2-b]pyridazin-2-yl)-2-(trifluoromethyl)phenyl)pivalamide] yielded a pIC50 [1, 3] of 6.66 and a pIC50 [2, 4] of 7.39.

COCCN(C)c1ccc2nc(-c3ccc(C(F)(F)F)c(NC(=O)C(C)(C)C)c3)cn2n1 [Example 299, N-(5-(6-((2-methoxyethyl)(methyl)amino)imidazo[1,2-b]pyridazin-2-yl)-2-(trifluoromethyl)phenyl)pivalamide] was tested, and the pIC50 [1, 3] was 6.32 and the pIC50 [2, 4] was 6.47.

Cc1ccc(-c2nc3ccc(-c4ccccc4F)nn3c2C)cc1NC(=O)C(C)(C)C [Example 312, N-(5-(6-(2-fluorophenyl)-3-methylimidazo[1,2-b]pyridazin-2-yl)-2-methylphenyl)pivalamide] showed a pIC50 [1, 3] of 6.49 and a pIC50 [2, 4] of 6.67.

With CN(C)c1ccc2nc(-c3ccc(C(F)(F)F)c(NC(=O)C(C)(C)C)c3)cn2n1 [Example 138, N-(5-(6-(dimethylamino)imidazo[1,2-b]pyridazin-2-yl)-2-(trifluoromethyl)phenyl)pivalamide] the pIC50 [1, 3] was 5.66 and the pIC50 [2, 4] was 5.46.

CCOC(=O)CCCCCOc1ccc(C(F)(F)F)c(-c2ccc3nc(-c4ccc(C)c(NC(=O)C(C)(C)C)c4)cn3n2)c1 [Example 424, ethyl 6-(3-(2-(4-methyl-3-pivalamidophenyl)imidazo[1,2-b]pyridazin-6-yl)-4-(trifluoromethyl)phenoxy)hexanoate] gave a pIC50 [1, 3] of 5.39 and a pIC50 [2, 4] of 5.13.

Compound CC(C)(C)C(=O)Nc1cc(-c2cn3nc(-c4cccnc4C(F)(F)F)ccc3n2)ccc1C(F)(F)F [Example 292, N-(2-(trifluoromethyl)-5-(6-(2-(trifluoromethyl)pyridin-3-yl)imidazo[1,2-b]pyridazin-2-yl)phenyl)pivalamide] has a pIC50 [1, 3] of 7.72 and a pIC50 [2, 4] of 7.33.

CC(C)(C)C(=O)Nc1cc(-c2cn3cc(Cl)ccc3n2)ccc1C(F)(F)F [Example 81, N-(5-(6-chloroimidazo[1,2-a]pyridin-2-yl)-2-(trifluoromethyl)phenyl)pivalamide] showed a pIC50 [1, 5] of 5.52 to 6.52, a pIC50 [1, 3] of 5.61 and a pIC50 [2, 6] of 5.52 to 6.52. For the same compound, the pIC50 [2, 4] was 5.97 and the pIC50 [2, 7] was 5.52 to 6.52.

Compound CCN1CCCC1C(=O)Nc1cc(-c2cn3nc(-c4cccnc4C(F)(F)F)ccc3n2)ccc1C (stereo not drawn) [Example 648, 1-ethyl-N-(2-methyl-5-(6-(2-(trifluoromethyl)pyridin-3-yl)imidazo[1,2-b]pyridazin-2-yl)phenyl)pyrrolidine-2-carboxamide] has a pIC50 [1, 3] of 6.43 and a pIC50 [2, 4] of 6.40.

CC(C)OCCOc1ccc2nc(-c3ccc(C(F)(F)F)c(NC(=O)C(C)(C)C)c3)cn2n1 [Example 374, N-(5-(6-(2-isopropoxyethoxy)imidazo[1,2-b]pyridazin-2-yl)-2-(trifluoromethyl)phenyl)pivalamide] gave a pIC50 [1, 3] of 5.89 and a pIC50 [2, 4] of 6.20.

Cc1ccc(-c2cn3nc(N4CCN(Cc5ccc(F)cc5)CC4)ccc3n2)cc1NC(=O)C(C)(C)C [Example 123, N-(5-(6-(4-(4-fluorobenzyl)piperazin-1-yl)imidazo[1,2-b]pyridazin-2-yl)-2-methylphenyl)pivalamide] showed a pIC50 [1, 5] of 5.52 to 6.52, a pIC50 [1, 3] of 6.31 and a pIC50 [2, 6] of 5.52 to 6.52. For the same compound, the pIC50 [2, 4] was 6.15 and the pIC50 [2, 7] was 5.52 to 6.52.

Work on CC(C)(C)CC(=O)Nc1cc(-c2cn3nc(-c4cccnc4C(F)(F)F)ccc3n2)ccc1F [Example 679, N-(2-fluoro-5-(6-(2-(trifluoromethyl)pyridin-3-yl)imidazo[1,2-b]pyridazin-2-yl)phenyl)-3,3-dimethylbutanamide] yielded a pIC50 [1, 3] of 6.18 and a pIC50 [2, 4] of 6.60.

In the case of CC(C)(C)C(=O)Nc1cc(-c2cn3cc(-c4cc(C(F)(F)F)ccc4F)ccc3n2)ccc1C(F)(F)F [Example 84, N-(5-(6-(2-fluoro-5-(trifluoromethyl)phenyl)imidazo[1,2-a]pyridin-2-yl)-2-(trifluoromethyl)phenyl)pivalamide], the pIC50 [1, 3] was 5.60 and the pIC50 [2, 4] was 5.80.

For CCOC(=O)C=Cc1cccc(C(=O)Nc2ccc3nc(-c4ccc(C)c(NC(=O)C(C)(C)C)c4)cn3n2)c1 [compound 602], the pIC50 [1, 3] was 6.50 and the pIC50 [2, 4] was 6.81.

With Cc1ccc(-c2cn3nc(-c4ccc(C(=O)Nc5ccccc5N)cc4)ccc3n2)cc1NC(=O)C(C)(C)C [compound 597] the pIC50 [1, 5] was over 6.52, the pIC50 [1, 3] was 6.55 and the pIC50 [2, 6] was over 6.52. For the same compound, the pIC50 [2, 4] was 7.41 and the pIC50 [2, 7] was over 6.52.

Work on CC(C)(C)C(=O)Nc1cc(-c2cn3nc(Cc4ccccc4)ccc3n2)ccc1C(F)(F)F [Example 231, N-(5-(6-benzylimidazo[1,2-b]pyridazin-2-yl)-2-(trifluoromethyl)phenyl)pivalamide] yielded a pIC50 [1, 5] of 5.52 to 6.52, a pIC50 [2, 6] of 4.52 to 5.52 and a pIC50 [2, 4] of 6.04. For the same compound, the pIC50 [2, 7] was 5.52 to 6.52.

For CC(C)(C)C(=O)Nc1cc(-c2cn3nc(-c4ccccc4C(F)(F)F)ccc3n2)ccc1C(F)(F)F [Example 209, N-(2-(trifluoromethyl)-5-(6-(2-(trifluoromethyl)phenyl)imidazo[1,2-b]pyridazin-2-yl)phenyl)pivalamide], the pIC50 [1, 3] was 7.01 and the pIC50 [2, 4] was 7.14.

In the case of CC(=O)NC1CCN(c2ccc3nc(-c4ccc(C)c(NC(=O)C(C)(C)C)c4)c(C)n3n2)C1 (stereo not drawn) [Example 363, N-(5-(6-(3-acetamidopyrrolidin-1-yl)-3-methylimidazo[1,2-b]pyridazin-2-yl)-2-methylphenyl)pivalamide], the pIC50 [1, 5] was 5.52 to 6.52, the pIC50 [1, 3] was 5.91 and the pIC50 [2, 6] was 5.52 to 6.52. For the same compound, the pIC50 [2, 4] was 6.21 and the pIC50 [2, 7] was 5.52 to 6.52.

For Cc1ccc(-c2cn3ncccc3n2)cc1NC(=O)CC(C)(C)C [Example 108, N-(5-(imidazo[1,2-b]pyridazin-2-yl)-2-methylphenyl)-3,3-dimethylbutanamide], the pIC50 [1, 3] was 5.28 and the pIC50 [2, 4] was 5.61.

Cc1ccccc1CN1CCN(c2ccc3nc(-c4ccccc4)c(C)n3n2)CC1 [Example 163, 3-methyl-6-(4-(2-methylbenzyl)piperazin-1-yl)-2-phenylimidazo[1,2-b]pyridazine] gave a pIC50 [1, 3] of 5.98 and a pIC50 [2, 4] of 5.98.

Cc1ccc(-c2cn3nc(-c4cc(C(F)(F)F)ccc4F)ccc3n2)cc1NC(=O)C(C)(C)C [Example 221, N-(5-(6-(2-fluoro-5-(trifluoromethyl)phenyl)imidazo[1,2-b]pyridazin-2-yl)-2-methylphenyl)pivalamide] showed a pIC50 [1, 3] of 6.98 and a pIC50 [2, 4] of 7.07.

CC(C)(C)C(=O)Nc1cc(-c2cn3nc(N4CCCC(O)C4)ccc3n2)ccc1C(F)(F)F (stereo not drawn) [Example 471, N-(5-(6-(3-hydroxypiperidin-1-yl)imidazo[1,2-b]pyridazin-2-yl)-2-(trifluoromethyl)phenyl)pivalamide] was tested, and the pIC50 [1, 3] was 6.35 and the pIC50 ([2]; hShh activation, read-out: Shh (IC50, inhibition of Hedgehog pathway activation)) was 6.82.
